The source of these data is publication PMC3816707, “Diamidines versus Monoamidines as Anti-Pneumocystis Agents: An in vivo Study” (Pharmaceuticals, 2013).

Data set [1] relates to 3T6 fibroblast cell line. Kind of data set: In vitro cytotoxicity, MTT-based cell viability assay. As to conditions: for Cytotoxicity: 3T6 cell line; for IC50 fold higher than for the reference compound (pentamidine): 3T6 cytotoxicity. More on the design: species or system murine. How it is done:
(§1) In vitro cytotoxicity assays with established cell lines are useful tools for the general screening of chemicals in toxicological studies. […] The procedure, according to the manufacturer recommendations, was based on the colorimetric determination of the succinate dehydrogenase activity by visualization (540 nm) of the conversion of a tetrazolium salt into formazan. With a microplate reader (Thermo Labsystems Multiskan Ascent 354, Waltham, MA, USA), the optical density of each well was measured at 540 nm against the background absorbance whose reference filter was set at 690 nm. Blank controls (culture medium), free-drug controls, and solvent (DMSO) controls were included in each assay. All cytotoxicity assays were set up in triplicate. […] The IC50 parameters were obtained by plotting % inhibition values against the logarithm of concentration for each compound.
(§2) For each compound, the % inhibition of activity against the concentration scale was plotted. The 50% inhibiting concentrations of cell proliferation (IC50) were calculated by locating the x-axis values corresponding to one-half of the absorbance values. The experiments were repeated in triplicate for each substance.

Test in data set [2]: as above
On the set-up: species or system murine. As to conditions: mouse, 3T6 embryonal fibroblast cells (adherent); 3T6 murine embryonal fibroblast cell line, MTT, triplicate, mean. How it is done: as §1, §2

Data set [3] relates to Pneumocystis carinii. Kind of data set: In vitro anti-Pneumocystis activity, P. carinii axenic short culture (4 days). Type of data set: cell-based. As to conditions: for inhibition of growth at 50 µg/mL / inhibition of growth at 0.1 µg/mL / inhibition of growth at 10 µg/mL / EC50: Pneumocystis carinii, 96 h; for inhibition of growth at 50 µg/mL / Anti-Pneumocystis activity % inhibition vs. free-drug control at 0.1 µg/mL / Anti-Pneumocystis activity % inhibition vs. free-drug control at 10 µg/mL / Anti-Pneumocystis activity % inhibition vs. free-drug control at 50 µg/mL: 4 days axenic culture; for inhibition of growth at 50 µg/mL: read-out: Anti-Pneumocystis activity % inhibition vs. free-drug control at 50 µg/mL; for inhibition of growth at 0.1 µg/mL: read-out: Anti-Pneumocystis activity % inhibition vs. free-drug control at 0.1 µg/mL, 0.1 µg/mL, 4 days axenic culture; for inhibition of growth at 10 µg/mL: read-out: Anti-Pneumocystis activity % inhibition vs. free-drug control at 10 µg/mL, 10 µg/mL, 4 days axenic culture; for EC50: 150 to 1.35 10^-5 µM, read-out: EC50 against P. carinii. Here is the method: Drug stock solutions in DMSO (10 mg/mL) were diluted in Dulbecco's Modified Eagle's Medium (DMEM, BioWhittaker) supplemented with 10% heat-inactivated foetal calf serum (FCS, Gibco-BRL) to produce the required drug concentrations. P. carinii axenic short cultures were performed as follows. All the experiments were carried out in 24-well plates with a final volume of 2 mL of DMEM supplemented with 10% of heat-inactivated fetal calf serum (FCS) containing a final inoculum of 10^6 organisms per mL. Plates were incubated for 4 days in an atmosphere of 5% CO2 at 37 °C. Then, P. carinii organisms were collected and quantified after RAL-555 panoptic staining. In parallel with these free-drug growth control wells, the anti-Pneumocystis effect of pentamidine and the other bisbenzamidines considered in this study was investigated in the same conditions. All molecules have been screened at a high (50 µg/mL), a medium (10 µg/mL), and a low (0.1 µg/mL) concentration. All experiments were performed in triplicate and data were statistically processed using Student’s t-test. Two-sided p-values < 0.05 were deemed to be statistically significant.
The parameters of this pharmacodynamic model were calculated by nonlinear least-squares regression techniques using commercial software (Sigma Plot, Systat Software Inc., San Jose, CA, USA).

Data set [4] is described as follows: Visual observations of treated rats (behavior, injection site). In kind it is in vivo, rat. As to conditions: for Cutaneous reaction at the site of injections: subcutaneous treatment, data not shown.
The subject of data set [5] is Pneumocystis carinii. Kind of data set: In vivo anti-Pneumocystis activity, P. carinii pneumonia in nude rats. On the set-up: species or system athymic Lou nu/nu rats. As to conditions: for % of inhibition versus control rats: once a day for 10 days, P. carinii count in lung homogenates; for In vivo anti-Pneumocystis activity: subcutaneous, 5 and 20 mg/kg/day, 10 days. Here is the method: To evaluate the in vivo anti-Pneumocystis activity, drug stock solutions in DMSO (300 mg/mL) were diluted in phosphate buffered saline (PBS, BioWhittaker) to produce the required final drug concentrations just before subcutaneous injection. Seven weeks p.i., animals were divided into groups of 4, and then pentamidine and derivatives 4 and 6 were dosed at 5 or 20 mg/kg by subcutaneous route. The drugs were given once a day for 10 consecutive days. The final concentration of DMSO in diluted drug solutions was maintained between 1.5% and 6%. Control animals received doses of 6%-DMSO in sterile water. Twenty-four hours after the end of the treatment, animals were euthanatized and the lung homogenised in a Stomacher-400 blender as previously described. Quantitation of trophic forms, sporocytes, and cysts was performed on air-dried smears stained with RAL-555 stain [34, 37, 38]. Therapeutic efficacy was assessed by counting P. carinii parasites in lung homogenates and comparing them with those of the untreated controls at the end of the experiment. The results were expressed as percentage of inhibition versus drug-free animal controls and presented as mean and standard error. Data were analyzed using a two-way analysis of variance (PROC MIXED, SAS Institute, Cary, NC, USA), with sex, drug, and their interaction as independent predictors. Due to heterogeneity in parasites count distributions, the first step of the analysis was the selection of the within-subject covariance, based either on likelihood ratio tests or on the Bayesian Information Criterion. Then, tests of the fixed effects were performed. No interaction was found between sex and drug. Therapeutic efficacy was assessed with polynomial contrasts. Regression underlying assumptions were visually inspected with residual plots. Statistical significance was set at α = 0.05.
An in vivo experiment was performed in order to explore whether it reflected in vitro results. The used in vivo model was the athymic Pneumocystis-free Lou nu/nu rats non-surgically inoculated by endo-tracheal route with a suspension of P. carinii organisms. […] Rats developed high infection levels 6–8 weeks post inoculation without secondary fungal or bacterial infection. […] Thus animals were endotracheally infected after 2 weeks of dexamethasone administration (1 mg/L, drinking water) with 10^7 P. carinii organisms. Drugs were administered once a day by subcutaneous route for 10 consecutive days. Untreated animals developed extensive infections at the end of the treatment period. The number of total P. carinii organisms per lung in DMSO control rats was 1.26 ± 0.20 × 10^10. […] On the other hand, whereas showing a strong anti-Pneumocystis activity in vitro, the monoamidine 7 appeared to be poorly potent when administered subcutaneously to Pneumocystis-infected rats, even at the dose of 20 mg/kg/day.

Details of data set [6]: method as in PMID 21147326. As to conditions: in comparison with pentamidine and the diamidine 6; cited from earlier work.
The mark [7] stands for this setting: Hill equation, 4 days of culture.

The structures appear in SMILES notation. Where a name gives a salt, the structure may show the parent alone.

Turning to `N=C(N)c1ccc(NCCNc2ccccc2)cc1` (as salt: sulfate) [Compound 7, N-(Benzamidine-4-yl)-N′-phenylethane-1,2-diamine sulfate salt], the melting point lay within 191 to 193 °C.
As to `CN(CCNc1ccc(C(=N)N)cc1)c1ccc(C(=N)N)cc1` [Compound 8], in data set [1], the “Cytotoxicity” value is reported as “cytotoxicity similar to that of pentamidine”. In addition, 2.48 ± 0.35 µM corresponded to half-maximal inhibition in data set [2] (IC50). In addition, in data set [3], the inhibition of growth at 50 µg/mL came out at 99%, the inhibition of growth at 0.1 µg/mL is 15 ± 12.5% and the inhibition of growth at 10 µg/mL came to 99%.
`N=C(N)c1ccc(NCCNc2ccc(C(=N)N)cc2)cc1` [Compound 6, N,N′-bis(benzamidine-4-yl)ethane-1,2-diamine]: in data set [4], the “Cutaneous reaction at the site of injections” value is “did not develop any cutaneous reaction”. In addition, the “Behavior during the treatment” value in data set [4] (visual observations) is “quite normal behavior”. Besides, in data set [1], the “Cytotoxicity” value is given as “no cytotoxicity” and the “IC50 fold higher than for the reference compound (pentamidine)” value is 15 fold. The compound further registered an IC50 in data set [2] of 30.2 ± 1.14 µM. For the same compound, in data set [3] (setting [7]), the “Slope S (steepness of the concentration-effect curve)” value (“Slope S” for short) was 1.49 ± 0.31 and the half-maximal effective concentration (EC50) came to 600 ± 120 nM. For the same compound, in data set [3], the inhibition of growth at 50 µg/mL was found to be 98.7 ± 0.6%, the inhibition of growth at 0.1 µg/mL was determined as 29.8 ± 19.7% and the inhibition of growth at 10 µg/mL is 97.7 ± 0.6%. Moreover, the “% of inhibition versus control rats” value in data set [5] (5 mg/kg/day subcutaneous) was 78.4%. Also, the “% of inhibition versus control rats” value in data set [5] (20 mg/kg/day subcutaneous) was 86.2%. In addition, the “In vivo anti-Pneumocystis activity” value in data set [5] is recorded as “strong anti-Pneumocystis activity comparable to that of pentamidine at both doses”.
Turning to `CN(CCNc1ccccc1)c1ccc(C(=N)N)cc1` [Compound 9, N-(Benzamidine-4-yl)-N-methyl-N′-phenylethane-1,2-diamine hydrochloride salt], the “Cytotoxicity” value in data set [1] is given as “cytotoxicity similar to that of pentamidine”. In data set [2], this compound showed an IC50 of 3.11 ± 0.09 µM. Moreover, in data set [3], the “Anti-Pneumocystis activity % inhibition vs. free-drug control at 0.1 µg/mL” value is “inactive”, the inhibition of growth at 50 µg/mL is 88.7 ± 2.5% and the inhibition of growth at 10 µg/mL was 86.3 ± 4%.
Regarding `N=C(N)c1ccc(OCCCCCOc2ccc(C(=N)N)cc2)cc1` [Compound 1, pentamidine, reference compound], the “Cutaneous reaction at the site of injections” value in data set [4] is on record as “deleterious wounds could be seen on the skin”. Besides, the IC50 in data set [2] came to 1.98 ± 0.2 µM. Also, in data set [3] (setting [7]), the “Slope S” value is 1.09 ± 0.23 and the EC50 is 80 ± 10 nM. In data set [3], the inhibition of growth at 50 µg/mL turned out to be 99 ± 0.1%, the inhibition of growth at 0.1 µg/mL amounted to 89% and the inhibition of growth at 10 µg/mL came out at 99 ± 0.1%. The “% of inhibition versus control rats” value in data set [5] (5 mg/kg/day subcutaneous) amounted to 84.6%. For the same compound, the “% of inhibition versus control rats” value in data set [5] (20 mg/kg/day subcutaneous) was determined as 95.3%.
For `N=C(N)c1ccc(N2CCN(c3ccccc3)CC2)cc1` [Compound 3], it took 56.06 ± 0.39 µM to reach half-maximal inhibition in data set [2] (IC50). Moreover, in data set [3], the inhibition of growth at 50 µg/mL is 99 ± 0.1%, the inhibition of growth at 0.1 µg/mL was determined as 8.3 ± 14.4% and the inhibition of growth at 10 µg/mL stood at 99 ± 0.1%.
The compound `Nc1ccc(N2CCN(c3ccc(N)cc3)CC2)cc1` [Compound 4] returned an IC50 in data set [2] of 40.8 ± 4.4 µM. Also, in data set [3], the “Anti-Pneumocystis activity % inhibition vs. free-drug control at 0.1 µg/mL” value is “inactive”, the “Anti-Pneumocystis activity % inhibition vs. free-drug control at 10 µg/mL” value is “inactive” and the “Anti-Pneumocystis activity % inhibition vs. free-drug control at 50 µg/mL” value was “inactive”.
In turn, `CN(CCNc1ccccc1)c1ccc(C(=N)N)cc1` (as salt: hydrochloride) [Compound 9, N-(Benzamidine-4-yl)-N-methyl-N′-phenylethane-1,2-diamine hydrochloride salt] showed a melting point of 212 to 215 °C.
`Nc1ccc(N2CCN(c3ccccc3)CC2)cc1` [Compound 5, 1-(4-Aminophenyl)-4-phenylpiperazine] displayed a melting point of 146 to 149 °C. In data set [2], this compound came in with an IC50 of 10.2 ± 0.6 µM. Besides, in data set [3], the “Anti-Pneumocystis activity % inhibition vs. free-drug control at 0.1 µg/mL” value is “inactive”, the “Anti-Pneumocystis activity % inhibition vs. free-drug control at 10 µg/mL” value is “inactive” and the “Anti-Pneumocystis activity % inhibition vs. free-drug control at 50 µg/mL” value was “inactive”.
Take `N=C(N)c1ccc(NCCNc2ccccc2)cc1` [Compound 7, N-(Benzamidine-4-yl)-N′-phenylethane-1,2-diamine sulfate salt]: the “Elimination from plasma” value in data set [6] is “more rapidly eliminated from plasma”. Moreover, in data set [1], the “Cytotoxicity” value was “no cytotoxicity” and the “IC50 fold higher than for the reference compound (pentamidine)” value came out at 20 fold. This compound also came in with an IC50 in data set [2] of 40.6 ± 1.3 µM. Also, in data set [3] (setting [7]), the “Slope S” value was 2.00 ± 0.54 and the EC50 stood at 400 ± 80 nM. Further, in data set [3] (Hill equation, maximum effect, 4 days of culture), the Emax is 99.37 ± 2.54%. Further, in data set [3], the inhibition of growth at 50 µg/mL was found to be 99.5 ± 0.4%, the inhibition of growth at 0.1 µg/mL was 42 ± 12.5% and the inhibition of growth at 10 µg/mL amounted to 98.7 ± 0.6%. Further, the “% of inhibition versus control rats” value in data set [5] (5 mg/kg/day subcutaneous) is 43.1%. For the same compound, the “% of inhibition versus control rats” value in data set [5] (20 mg/kg/day subcutaneous) worked out at 54.3%. Further, the “In vivo anti-Pneumocystis activity” value in data set [5] is given as “poorly potent”.

A word on the melting point: it is the temperature of the solid-liquid transition. The IC50 is the concentration that inhibits the measured activity by half. A low value points to greater potency. As usually defined, the EC50 is the midpoint of the concentration-response curve. As usually defined, the Emax is the greatest response seen or fitted, relative to the assay's reference.
